Patent US20250320206A1, “STAT6 DEGRADERS” (Gilead Sciences, Inc., priority 2024, published 2025)

Target: T1, STAT6 (Homo sapiens, UniProt P42226)
T1 construct: These cells express endogenous STAT6; host or cells: HeLa LgBiT clone 4.14
T1 sequence (P42226 1-847): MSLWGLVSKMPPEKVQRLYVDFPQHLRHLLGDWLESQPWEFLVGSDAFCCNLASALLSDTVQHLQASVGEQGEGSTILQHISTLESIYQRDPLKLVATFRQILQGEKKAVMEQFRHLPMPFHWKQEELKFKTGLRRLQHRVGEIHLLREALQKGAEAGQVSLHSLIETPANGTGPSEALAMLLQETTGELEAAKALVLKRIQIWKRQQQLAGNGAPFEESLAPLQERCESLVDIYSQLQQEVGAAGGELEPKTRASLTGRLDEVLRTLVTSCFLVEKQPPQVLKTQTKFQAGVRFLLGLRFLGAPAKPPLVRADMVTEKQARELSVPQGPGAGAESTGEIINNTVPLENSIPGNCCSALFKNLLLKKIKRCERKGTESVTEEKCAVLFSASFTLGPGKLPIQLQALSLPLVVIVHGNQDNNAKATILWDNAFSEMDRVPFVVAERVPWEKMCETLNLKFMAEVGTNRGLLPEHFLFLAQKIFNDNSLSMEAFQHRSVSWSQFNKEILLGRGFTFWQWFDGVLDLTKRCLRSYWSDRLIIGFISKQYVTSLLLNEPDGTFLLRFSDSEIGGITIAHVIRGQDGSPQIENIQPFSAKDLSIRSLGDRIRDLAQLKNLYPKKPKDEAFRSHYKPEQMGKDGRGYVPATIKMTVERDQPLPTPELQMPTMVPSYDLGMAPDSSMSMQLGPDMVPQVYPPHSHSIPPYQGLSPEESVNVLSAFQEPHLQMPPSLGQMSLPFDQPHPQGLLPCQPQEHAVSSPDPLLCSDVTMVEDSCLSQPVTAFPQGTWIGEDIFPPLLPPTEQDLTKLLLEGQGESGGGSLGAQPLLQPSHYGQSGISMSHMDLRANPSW
Assay: Stat6 Degrader Assay (HiBiT based, HeLa LgBiT clone 4.14)
Format: cell-based
Conditions: HeLa LgBiT clone 4.14 HiBiT-STAT6, 4-24 h incubation; read-out: STAT6 degradation Emax
Method: This was a HiBit based assay. A HeLa cell line stably transfected with a small protein, LgBit (Large Bit) was obtained from Promega. These cells express endogenous STAT6. A small 11 amino acid gene sequence (HiBiT) was inserted in the STAT6 gene using CRISPR technology. Once STAT6 protein is expressed in the cells, the HiBiT sequence will bind the LgBit in the cells resulting in a functional NanoBiT protein, giving a luminescent tag to STAT6, see FIG. 2.
Single cell clones were prepared and the clone 4.14 was selected for the assay based on that clone showing high luminescence, high STAT6 phosphorylation upon stimulation with IL-4, and inhibition of luminescence when cells were treated with STAT6 siRNA.
HeLa LgBiT clone 4.14 cells were suspended in DMEM with 10% FCS, 1% Pen/Strep, Na-pyrovate and Hygromycin B, at a concentration of 1.25*105 cells pr mL. 5000 cells were added pr well of a 384 well plate and 20 nL of compound was added by Echo® liquid handler. NN6394A (terfenadine, a toxic compound) was added to control wells at 50 μM concentration to establish the assay window. In these wells the cells are dead which equals 100% degradation of STAT6.
After 4-24 h of incubation at 37° C. under 5% CO2/95% air, 5 μL substrate (Nano-GLO®) was added to the wells and the plates were centrifuged and incubated for 0.5 h.
The luminescence in the wells as a measure of non-degraded STAT6 was measured in a plate reader (BMG Pherastar FSX).
The dose-response curves for Examples 3u208, 3u246, 3u118, 3u119, 3u120, and 3u74 are shown in FIG. 1 (where percent degradation is plotted vs. test compound concentration in M on a log-scale).

Emax	SMILES
20 to 30%	CNc1cc(=O)n(-c2ccnc3c2cc([C@H](C)N2CC=C(c4c(C)cc(C(=O)N5CCC(CN6CCN(Cc7ccc8c(c7)n(C7CC7)c(=O)n8C7CCC(=O)NC7=O)C[C@@H]6C)CC5)cc4F)CC2)n3C)cc1OC (stereo partly drawn) [Example 3u134, 3-(3-cyclopropyl-5-(((S)-4-((1-(3-fluoro-4-(1-((S)-1-(4-(5-methoxy-4-(methylamino)-2-oxopyridin-1 (2H)-yl)-1-methyl-1H-pyrrolo[2,3-b]pyridin-2-yl)ethyl)-1,2,3,6-tetrahydropyridin-4-yl)-5-methylbenzoyl)piperidin-4-yl)methyl)-3-methylpiperazin-1-yl)methyl)-2-oxo-2,3-dihydro-1H-benzo[d]imidazol-1-yl)piperidine-2,6-dione]
< 20%	CNc1nc(=O)n(-c2ccnc3c2cc(CN2CCC(c4c(F)cc(C(=O)N5CCC(CN6CCN(c7cc8c(cc7F)n(C7CCC(=O)NC7=O)c(=O)n8C)CC6)CC5)cc4F)CC2)n3C)cc1F (centres unmarked) [Example 3u261, 3-(5-(4-((1-(3,5-difluoro-4-(1-((4-(5-fluoro-4-(methylamino)-2-oxopyrimidin-1 (2H)-yl)-1-methyl-1H-pyrrolo[2,3-b]pyridin-2-yl)methyl)piperidin-4-yl)benzoyl)piperidin-4-yl)methyl)piperazin-1-yl)-6-fluoro-3-methyl-2-oxo-2,3-dihydro-1H-benzo[d]imidazol-1-yl)piperidine-2,6-dione]
30 to 40%	CNc1cc(=O)n(-c2ccnc3c2cc(CN2CCC(c4c(F)cc(C(=O)N5CCC(OCC#Cc6ccc7c(c6)n(C)c(=O)n7C6CCC(=O)NC6=O)CC5)cc4F)CC2)n3C)cc1F (centres unmarked) [Example 3u262, 3-(5-(3-((1-(3,5-difluoro-4-(1-((4-(5-fluoro-4-(methylamino)-2-oxopyridin-1 (2H)-yl)-1-methyl-1H-pyrrolo[2,3-b]pyridin-2-yl)methyl)piperidin-4-yl)benzoyl)piperidin-4-yl)oxy)prop-1-yn-1-yl)-3-methyl-2-oxo-2,3-dihydro-1H-benzo[d]imidazol-1-yl)piperidine-2,6-dione]
70 to 80%	CNc1cc(=O)n(-c2ccnc3c2cc(CN2CCC(c4c(F)cc(C(=O)N5CCC(CCn6cc(-c7ccc8c(c7)n(C)c(=O)n8C7CCC(=O)NC7=O)nn6)CC5)cc4F)CC2)n3C)cc1F (centres unmarked) [Example 3u263, 3-(5-(1-(2-(1-(3,5-difluoro-4-(1-((4-(5-fluoro-4-(methylamino)-2-oxopyridin-1 (2H)-yl)-1-methyl-1H-pyrrolo[2,3-b]pyridin-2-yl)methyl)piperidin-4-yl)benzoyl)piperidin-4-yl)ethyl)-1H-1,2,3-triazol-4-yl)-3-methyl-2-oxo-2,3-dihydro-1H-benzo[d]imidazol-1-yl)piperidine-2,6-dione]

Same assay, conditions: HeLa LgBiT clone 4.14 HiBiT-STAT6, 4-24 h incubation; values given for compounds with >80% Emax; geometric mean; read-out: STAT6 degradation DC50

DC50	SMILES
0.7 nM	Cc1cc(C(=O)N2CCC(CN3CCN(Cc4ccc5c(c4)n(C4CC4)c(=O)n5C4CCC(=O)NC4=O)C[C@@H]3C)CC2)cc(F)c1C1=CCN([C@@H](C)c2cc3c(-n4ccc5c(c4=O)CCN5)ccnc3n2C)CC1 (stereo partly drawn) [Example 3u143, 3-(3-cyclopropyl-5-(((S)-4-((1-(3-fluoro-5-methyl-4-(1-((S)-1-(1-methyl-4-(4-oxo-1,2,3,4-tetrahydro-5H-pyrrolo[3,2-c]pyridin-5-yl)-1H-pyrrolo[2,3-b]pyridin-2-yl)ethyl)-1,2,3,6-tetrahydropyridin-4-yl)benzoyl)piperidin-4-yl)methyl)-3-methylpiperazin-1-yl)methyl)-2-oxo-2,3-dihydro-1H-benzo[d]imidazol-1-yl)piperidine-2,6-dione]
24.1 nM	CNc1ccn(-c2ccnc3c2cc(CN2CCC(c4c(C)cc(C(=O)N5CCC(CN6CCN(Cc7ccc8c(c7)n(C)c(=O)n8C7CCC(=O)NC7=O)CC6)CC5)cc4F)CC2)n3C)c(=O)c1 (centres unmarked) [Example 3u158, 3-(5-((4-((1-(3-fluoro-5-methyl-4-(1-((1-methyl-4-(4-(methylamino)-2-oxopyridin-1 (2H)-yl)-1H-pyrrolo[2,3-b]pyridin-2-yl)methyl)piperidin-4-yl)benzoyl)piperidin-4-yl)methyl)-piperazin-1-yl)methyl)-3-methyl-2-oxo-2,3-dihydro-1H-benzo[d]imidazol-1-yl)piperidine-2,6-dione]
4.4 nM	CNc1ccn(-c2ccnc3c2cc(CN2CC=C(c4c(C)cc(C(=O)N5CCC(CN6CCN(Cc7ccc8c(c7)n(C)c(=O)n8C7CCC(=O)NC7=O)CC6)CC5)cc4F)CC2)n3C)c(=O)c1 (centres unmarked) [Example 3u163, 3-(5-((4-((1-(3-fluoro-5-methyl-4-(1-((1-methyl-4-(4-(methylamino)-2-oxopyridin-1 (2H)-yl)-1H-pyrrolo[2,3-b]pyridin-2-yl)methyl)-1,2,3,6-tetrahydropyridin-4-yl)benzoyl)piperidin-4-yl)methyl)piperazin-1-yl)methyl)-3-methyl-2-oxo-2,3-dihydro-1H-benzo[d]imidazol-1-yl)piperidine-2,6-dione]
0.4 nM	CNc1ccn(-c2ccnc3c2cc([C@H](C)N2CC=C(c4c(C)cc(C(=O)N(C)C5CCC(C6CCN(Cc7ccc8c(c7)n(C)c(=O)n8C7CCC(=O)NC7=O)CC6)CC5)cc4F)CC2)n3C)c(=O)c1 (stereo partly drawn) [Example 3u252, N-(4-(1-((1-(2,6-dioxopiperidin-3-yl)-3-methyl-2-oxo-2,3-dihydro-1H-benzo[d]-imidazol-5-yl)methyl)piperidin-4-yl)cyclohexyl)-3-fluoro-N,5-dimethyl-4-(1-((S)-1-(1-methyl-4-(4-(methylamino)-2-oxopyridin-1 (2H)-yl)-1H-pyrrolo[2,3-b]pyridin-2-yl)ethyl)-1,2,3,6-tetrahydropyridin-4-yl)benzamide]
13.7 nM	CNc1ccn(-c2ccnc3c2cc([C@H](C)N2CC=C(c4c(C)cc(C(=O)N5CCC(CN6CCN(Cc7ccc8c(c7)C(F)(F)C(=O)N8C7CCC(=O)NC7=O)CC6)CC5)cc4F)CC2)n3C)c(=O)c1 (stereo partly drawn) [Example 3u255, 3-(3,3-difluoro-5-((4-((1-(3-fluoro-5-methyl-4-(1-((S)-1-(1-methyl-4-(4-(methylamino)-2-oxopyridin-1 (2H)-yl)-1H-pyrrolo[2,3-b]pyridin-2-yl)ethyl)-1,2,3,6-tetrahydropyridin-4-yl)benzoyl)piperidin-4-yl)methyl)piperazin-1-yl)methyl)-2-oxoindolin-1-yl)piperidine-2,6-dione]
0.5 nM	CNc1ccn(-c2ccnc3c2cc([C@H](C)N2CC=C(c4c(C)cc(C(=O)N5CCn6nc(CC7CCN(c8ccc9c(c8)n(C8CC8)c(=O)n9C8CCC(=O)NC8=O)CC7)cc6C5)cc4F)CC2)n3C)c(=O)c1 (stereo partly drawn) [Example 3u259, 3-(3-cyclopropyl-5-(4-((5-(3-fluoro-5-methyl-4-(1-((S)-1-(1-methyl-4-(4-(methylamino)-2-oxopyridin-1 (2H)-yl)-1H-pyrrolo[2,3-b]pyridin-2-yl)ethyl)-1,2,3,6-tetrahydropyridin-4-yl)benzoyl)-4,5,6,7-tetrahydropyrazolo[1,5-a]pyrazin-2-yl)methyl)piperidin-1-yl)-2-oxo-2,3-dihydro-1H-benzo[d]imidazol-1-yl)piperidine-2,6-dione]
5.9 nM	CNc1ccn(-c2ccnc3c2cc(CN2CCC(c4c(F)cc(C(=O)N5CCC(CN6CCN(C(=O)c7ccc8c(c7)n(C)c(=O)n8C7CCC(=O)NC7=O)CC6)CC5)cc4F)CC2)n3C)c(=O)c1 (centres unmarked) [Example 3u264, 3-(5-(4-((1-(3,5-difluoro-4-(1-((1-methyl-4-(4-(methylamino)-2-oxopyridin-1 (2H)-yl)-1H-pyrrolo[2,3-b]pyridin-2-yl)methyl)piperidin-4-yl)benzoyl)piperidin-4-yl)methyl)piperazine-1-carbonyl)-3-methyl-2-oxo-2,3-dihydro-1H-benzo[d]imidazol-1-yl)piperidine-2,6-dione]
